Test results from patent US6495529B1 (Warner-Lambert Company, priority 1998, dated 2002).

Tests used:
Swiss-Webster mice = settings: mice pretreated with 0.01, 0.1 or 1.0 mg/kg triprolidine
Method: The mice were immediately placed in the activity testing chamber for a 2-h session. Doses of the test compound were selected from the ascending or descending time of the dose-effect curve determined from the compound-alone studies. Eight mice were tested for each triprolidine/sympathomimetic combination.
Time course data for each compound were considered in 2-way analyses of variance with dose as a between-group and time as a within-group factor. The dose-effect data were considered in 1-way analyses of variance, and planned individual comparisons were conduced between each dose and the saline control group. Interaction studies were considered in 2-way analyses of variance, with Pretreatment and Test dose as the factors.

[1] = tested on: histamine-challenged rats; assay: Nasal airway pressure in histamine-challenged rats; settings: for Nasal airway pressure, Post Drug: 100% dose i.v. two minutes after histamine; for Nasal airway pressure, Post Histamine: after intranasal histamine 50 mM 0.02 ml/nostril, before drug; for Nasal airway pressure, Control: before histamine and drug; for Mean decrease in nasal airway pressure, % Change: post drug vs post histamine
α2-receptors = assay: ALPHA-2 binding, p-125Iodoclonidine, canine brain (frontal cortex) membranes; set-up: species or system dog
Method: Membranes of mongrel dogs were harvested from the canine frontal cortex and prepared as described for lung except that the final membrane protein concentration was adjusted to 0.5 mg/ml.
Nonspecific binding was determined in separate incubations in the presence of 10 μM phentolamine. The final concentration of p-iodoclonidine was 44-45 pM in competition studies and between 50 pM and 10 nM in saturation experiments. Bound and free […] were separated and the bound quantitated as described above for the ICYP assays.
All data were analyzed with the aid of microcomputer nonlinear curve fitting programs (PRISM 2.0, Graphpad Software, San Diego Calif.).
The receptors resident in each of the three membrane preparations were evaluated by standard saturation analysis following the addition of increasing concentrations of the appropriate radioligand.
The radio ligand added for subsequent α2-displacement assays was adjusted to evaluate only the high affinity receptor. Contributions from p-iodoclonidine binding to imidazoline receptors in the α2-displacement assay were evaluated with epinephrine.

| Compound | modification of stimulant or depressant effects by triprolidine pretreatment (Swiss-Webster mice) | Nasal airway pressure, Post Drug [1] | Nasal airway pressure, Post Histamine [1] | Nasal airway pressure, Control [1] | Mean decrease in nasal airway pressure, % Change [1] | Ki (α2-receptors) | IC50 (α2-receptors; Table 4, no unit in table, IC50 defined in μM, read-out: Alpha-2 IC50) |
| --- | --- | --- | --- | --- | --- | --- | --- |
| CNC[C@H](O)c1cccc(O)c1 [(−)-phenylephrine] | did not show significant modification of stimulant or depressant effects | 10.5 mm water | 13.2 ± 2.1 mm water | 7.5 ± 0.5 mm water | −22.3% | – | – |
| CN[C@@H](C)[C@H](O)c1ccccc1 [(−)-ephedrine] | – | 6.4 mm water | 8.2 ± 0.7 mm water | 6.7 ± 0.4 mm water | −21.8% | […] | […] |
